Data: patent US20230190781A1, “ADEMETIONINE AND CANNABIDIOL BASED SOLID PHARMACEUTICAL COMPOSITION AND METHOD FOR PREPARING IT” (priority 2020, published 2023)

Legend:
[1] = Residual humidity according to Karl-Fisher during processing under vacuum; assay type: physicochemical; conditions: Phase: dosage
Protocol: It was operated as described in Example 3, but the step of mixing the active substances was carried out under vacuum, as described in Example 11.

[2] = Stability of ademetionine in the compositions; assay type: physicochemical; conditions: +40° C. and 75% RH
Protocol: The compositions prepared according to the previous examples were placed in dark glass jars in cabinets with temperature and relative humidity control (+40° C. and 75% RH), periodically checking the content of active substances. The stability of the raw material is used as a reference.

For `C[S+](CC[C@H](N)C(=O)[O-])C[C@H]1O[C@@H](n2cnc3c(N)ncnc32)[C@H](O)[C@@H]1O` (stereo partly drawn) [Ademetionine, S,S-adenosyl-L-methionine], the “KF: residual humidity” value [1] was 2.7% w/w, the “ademetionine content, Time (months) 0” value ([2]; dark glass jars, 0 months) was 51.5 and the “ademetionine content, Time (months) 1” value ([2]; dark glass jars, 1 month) was 51.0. The “ademetionine content, Time (months) 2” value ([2]; dark glass jars, 2 months) was 49.6, the “ademetionine content, Time (months) 3” value ([2]; dark glass jars, 3 months) was 48.8 and the “% residual ion” value ([2]; active substance content after three months as a percentage with respect to time zero) was 94.8%.
